According to ChEMBL document CHEMBL1275437, “Prevalence of serotype 19A Streptococcus pneumoniae among isolates from U.S. children in 2005-2006 and activity of faropenem” (2008):
Values after ≈ are worked out from the molar mass of the structure shown.

Experiments:
Assay type in all cases: functional
[1] = tested on: Streptococcus pneumoniae; assay: Antibacterial activity against Streptococcus pneumoniae serotype 19F assessed as percent resistant isolates by broth microdilution method
[2] = tested on: Streptococcus pneumoniae; assay: Antibacterial activity against Streptococcus pneumoniae serotype 6A/C assessed as percent resistant isolates by broth microdilution method
[3] = tested on: Streptococcus pneumoniae; assay: Antibacterial activity against Streptococcus pneumoniae serotype 35B by broth microdilution method
[4] = tested on: Streptococcus pneumoniae; assay: Antibacterial activity against Streptococcus pneumoniae serotype 19F by broth microdilution method
[5] = tested on: Streptococcus pneumoniae; assay: Antibacterial activity against Streptococcus pneumoniae serotype 15A assessed as percent resistant isolates by broth microdilution method
[6] = tested on: Streptococcus pneumoniae; assay: Antibacterial activity against Streptococcus pneumoniae serotype 23A by broth microdilution method
[7] = tested on: Streptococcus pneumoniae; assay: Antibacterial activity against Streptococcus pneumoniae serotype 19A by broth microdilution method
[8] = tested on: Streptococcus pneumoniae; assay: Antibacterial activity against Streptococcus pneumoniae serotype 22 by broth microdilution method
[9] = tested on: Streptococcus pneumoniae; assay: Antibacterial activity against Streptococcus pneumoniae serotype 35B assessed as percent susceptible isolates by broth microdilution method
[10] = tested on: Streptococcus pneumoniae; assay: Antibacterial activity against Streptococcus pneumoniae serotype 19F assessed as percent susceptible isolates by broth microdilution method
[11] = tested on: Streptococcus pneumoniae; assay: Antibacterial activity against Streptococcus pneumoniae serotype 15A by broth microdilution method
[12] = tested on: Streptococcus pneumoniae; assay: Antibacterial activity against Streptococcus pneumoniae serotype 3 assessed as percent resistant isolates by broth microdilution method
[13] = tested on: Streptococcus pneumoniae; assay: Antibacterial activity against Streptococcus pneumoniae serotype 15A assessed as percent susceptible isolates by broth microdilution method
[14] = tested on: Streptococcus pneumoniae; assay: Antibacterial activity against Streptococcus pneumoniae serotype 6A/C by broth microdilution method
[15] = tested on: Streptococcus pneumoniae; assay: Antibacterial activity against Streptococcus pneumoniae serotype 33 by broth microdilution method
[16] = tested on: Streptococcus pneumoniae; assay: Antibacterial activity against Streptococcus pneumoniae serotype 3 assessed as percent susceptible isolates by broth microdilution method
[17] = tested on: Streptococcus pneumoniae; assay: Antibacterial activity against Streptococcus pneumoniae serotype 22 assessed as percent resistant isolates by broth microdilution method
[18] = tested on: Streptococcus pneumoniae; assay: Antibacterial activity against Streptococcus pneumoniae serotype 33 assessed as percent resistant isolates by broth microdilution method
[19] = tested on: Streptococcus pneumoniae; assay: Antibacterial activity against Streptococcus pneumoniae serotype 23A assessed as percent resistant isolates by broth microdilution method
[20] = tested on: Streptococcus pneumoniae; assay: Antibacterial activity against Streptococcus pneumoniae serotype 23A assessed as percent susceptible isolates by broth microdilution method
[21] = tested on: Streptococcus pneumoniae; assay: Antibacterial activity against Streptococcus pneumoniae serotype 19A assessed as percent susceptible isolates by broth microdilution method
[22] = tested on: Streptococcus pneumoniae; assay: Antibacterial activity against Streptococcus pneumoniae serotype 6A/C assessed as percent susceptible isolates by broth microdilution method
[23] = tested on: Streptococcus pneumoniae; assay: Antibacterial activity against Streptococcus pneumoniae serotype 33 assessed as percent susceptible isolates by broth microdilution method
[24] = tested on: Streptococcus pneumoniae; assay: Antibacterial activity against Streptococcus pneumoniae serotype 22 assessed as percent susceptible isolates by broth microdilution method
[25] = tested on: Streptococcus pneumoniae; assay: Antibacterial activity against Streptococcus pneumoniae serotype 3 by broth microdilution method
[26] = tested on: Streptococcus pneumoniae; assay: Antibacterial activity against Streptococcus pneumoniae serotype 35B assessed as percent resistant isolates by broth microdilution method
[27] = tested on: Streptococcus pneumoniae; assay: Antibacterial activity against Streptococcus pneumoniae serotype 19A assessed as percent resistant isolates by broth microdilution method
[28] = Streptococcus pneumoniae, serotype 19F
[29] = Streptococcus pneumoniae, serotype 6A/C
[30] = Streptococcus pneumoniae, serotype 15A
[31] = Streptococcus pneumoniae, serotype 35B
[32] = Streptococcus pneumoniae, serotype 19A

C=CC1=C(C(=O)O)N2C(=O)[C@@H](NC(=O)/C(=N\O)c3csc(N)n3)[C@H]2SC1 [CEFDINIR]
% resistant isolates [1, 28]: 67%
% resistant isolates [2, 29]: 15%
MIC90 [3]: 4 mg/L (≈ 10.1 µM)
MIC90 [4]: > 8 mg/L
% resistant isolates [5, 30]: 7%
MIC90 [6]: 0.5 mg/L (≈ 1.26 µM)
MIC90 [7]: > 8 mg/L
MIC90 [8]: 0.12 mg/L (≈ 0.303 µM)
% susceptible isolates [9]: 0%
percent susceptible isolates [10]: 33%
MIC90 [11]: 1 mg/L (≈ 2.53 µM)
% resistant isolates [12]: 0%
percent susceptible isolates [13]: 72%
MIC90 [14]: 2 mg/L (≈ 5.06 µM)
MIC90 [15]: 0.12 mg/L (≈ 0.303 µM)
% susceptible isolates [16]: 100%
% resistant isolates [17]: 0%
% resistant isolates [18]: 0%
% resistant isolates [19]: 0%
percent susceptible isolates [20]: 93%
percent susceptible isolates [21]: 46%
percent susceptible isolates [22]: 59%
% susceptible isolates [23]: 100%
% susceptible isolates [24]: 100%
MIC90 [25]: 0.12 mg/L (≈ 0.303 µM)
% resistant isolates [26, 31]: 100%
% resistant isolates [27, 32]: 53%

CC[C@H]1OC(=O)[C@H](C)[C@@H](O[C@H]2C[C@@](C)(OC)[C@@H](O)[C@H](C)O2)[C@H](C)[C@@H](O[C@@H]2O[C@H](C)C[C@H](N(C)C)[C@H]2O)[C@](C)(O)C[C@@H](C)CN(C)[C@H](C)[C@@H](O)[C@]1(C)O [AZITHROMYCIN]
% resistant isolates [1, 28]: 71%
% resistant isolates [2, 29]: 69%
MIC90 [3]: 16 mg/L (≈ 21.4 µM)
MIC90 [4]: > 16 mg/L
% resistant isolates [5, 30]: 93%
MIC90 [6]: > 16 mg/L
MIC90 [7]: > 16 mg/L
MIC90 [8]: ≤ 0.12 mg/L
% susceptible isolates [9, 31]: 73%
percent susceptible isolates [10]: 29%
MIC90 [11]: > 16 mg/L
% resistant isolates ([12]; Streptococcus pneumoniae, serotype 3): 4%
percent susceptible isolates [13]: 7%
MIC90 [14]: 8 mg/L (≈ 10.7 µM)
MIC90 [15]: 16 mg/L (≈ 21.4 µM)
% susceptible isolates [16]: 93%
% resistant isolates [17]: 0%
% resistant isolates [18]: 0%
% resistant isolates [19]: 0%
percent susceptible isolates [20]: 79%
percent susceptible isolates [21]: 36%
percent susceptible isolates [22]: 31%
% susceptible isolates [23]: 42%
% susceptible isolates [24]: 100%
MIC90 [25]: 0.5 mg/L (≈ 0.668 µM)
% resistant isolates [26, 31]: 27%
% resistant isolates [27, 32]: 64%

CC[C@H]1OC(=O)[C@H](C)C(=O)[C@H](C)[C@@H](O[C@@H]2O[C@H](C)C[C@H](N(C)C)[C@H]2O)[C@](C)(OC)C[C@@H](C)C(=O)[C@H](C)[C@H]2N(CCCCn3cnc(-c4cccnc4)c3)C(=O)O[C@]12C [TELITHROMYCIN]
% resistant isolates [1]: 0%
% resistant isolates [2]: 0%
MIC90 [3]: 0.5 mg/L (≈ 0.616 µM)
MIC90 [4]: 1 mg/L (≈ 1.23 µM)
% resistant isolates [5]: 0%
MIC90 [6]: ≤ 0.12 mg/L
MIC90 [7]: 1 mg/L (≈ 1.23 µM)
MIC90 [8]: ≤ 0.12 mg/L
% susceptible isolates [9, 31]: 100%
percent susceptible isolates [10]: 100%
MIC90 [11]: ≤ 0.12 mg/L
% resistant isolates [12]: 0%
percent susceptible isolates [13]: 100%
MIC90 [14]: 0.25 mg/L (≈ 0.308 µM)
% susceptible isolates [16]: 100%
% resistant isolates [17]: 0%
% resistant isolates [18]: 0%
% resistant isolates [19]: 0%
percent susceptible isolates [20]: 100%
percent susceptible isolates [21]: 99%
percent susceptible isolates [22]: 100%
% susceptible isolates [23]: 0.25%
% susceptible isolates [24]: 100%
MIC90 [25]: ≤ 0.12 mg/L
% resistant isolates [26]: 0%
% resistant isolates [27]: 0%

C[C@H]1COc2c(N3CCN(C)CC3)c(F)cc3c(=O)c(C(=O)O)cn1c23.C[C@H]1COc2c(N3CCN(C)CC3)c(F)cc3c(=O)c(C(=O)O)cn1c23.O [LEVOFLOXACIN]
% resistant isolates [1]: 0%
% resistant isolates [2]: 0%
MIC90 [3]: 1 mg/L
MIC90 [4]: 1 mg/L
% resistant isolates [5]: 0%
MIC90 [6]: 1 mg/L
MIC90 [7]: 1 mg/L
MIC90 [8]: 1 mg/L
% susceptible isolates [9, 31]: 100%
percent susceptible isolates [10]: 100%
MIC90 [11]: 1 mg/L
% resistant isolates [12]: 0%
percent susceptible isolates [13]: 100%
MIC90 [14]: 1 mg/L
% susceptible isolates [16]: 97%
% resistant isolates [17]: 0%
% resistant isolates [18]: 0%
% resistant isolates [19]: 0%
percent susceptible isolates [20]: 100%
percent susceptible isolates [21]: 100%
percent susceptible isolates [22]: 100%
% susceptible isolates [23]: 1%
% susceptible isolates [24]: 100%
MIC90 [25]: 2 mg/L
% resistant isolates [26]: 0%
% resistant isolates [27]: 0%

CC1(C)S[C@@H]2[C@H](NC(=O)Cc3ccccc3)C(=O)N2[C@H]1C(=O)O [PENICILLIN G]
% resistant isolates [1, 28]: 67%
% resistant isolates [2, 29]: 8%
MIC90 [3]: 2 mg/L (≈ 5.98 µM)
MIC90 [4]: > 4 mg/L
% resistant isolates [5]: 0%
MIC90 [6]: 0.5 mg/L (≈ 1.5 µM)
MIC90 [7]: 4 mg/L (≈ 12 µM)
MIC90 [8]: ≤ 0.03 mg/L
% susceptible isolates [9]: 0%
percent susceptible isolates [10]: 33%
MIC90 [11]: 0.5 mg/L (≈ 1.5 µM)
% resistant isolates [12]: 0%
percent susceptible isolates [13]: 7%
MIC90 [14]: 1 mg/L (≈ 2.99 µM)
MIC90 [15]: ≤ 0.03 mg/L
% susceptible isolates [16]: 100%
% resistant isolates [17]: 0%
% resistant isolates [18]: 0%
% resistant isolates [19]: 0%
percent susceptible isolates [20]: 57%
percent susceptible isolates [21]: 13%
percent susceptible isolates [22]: 23%
% susceptible isolates [23]: 92%
% susceptible isolates [24]: 100%
MIC90 [25]: ≤ 0.03 mg/L
% resistant isolates [26, 31]: 100%
% resistant isolates [27, 32]: 50%

CO/N=C(\C(=O)N[C@@H]1C(=O)N2C(C(=O)OC(C)OC(C)=O)=C(COC(N)=O)CS[C@H]12)c1ccco1 (stereo not given in full) [CEFUROXIME AXETIL]
% resistant isolates [1, 28]: 67%
% resistant isolates [2, 29]: 15%
MIC90 [3]: 4 mg/L (≈ 7.84 µM)
MIC90 [4]: 32 mg/L (≈ 62.7 µM)
% resistant isolates [5, 30]: 21%
MIC90 [6]: 1 mg/L (≈ 1.96 µM)
MIC90 [7]: 16 mg/L (≈ 31.3 µM)
MIC90 [8]: ≤ 0.5 mg/L
% susceptible isolates [9]: 0%
percent susceptible isolates [10]: 33%
MIC90 [11]: 4 mg/L (≈ 7.84 µM)
% resistant isolates [12]: 0%
percent susceptible isolates [13]: 72%
MIC90 [14]: 4 mg/L (≈ 7.84 µM)
MIC90 [15]: ≤ 0.5 mg/L
% susceptible isolates [16]: 100%
% resistant isolates [17]: 0%
% resistant isolates [18]: 0%
% resistant isolates [19]: 0%
percent susceptible isolates [20]: 93%
percent susceptible isolates [21]: 46%
percent susceptible isolates [22]: 64%
% susceptible isolates [23]: 100%
% susceptible isolates [24]: 100%
MIC90 [25]: ≤ 0.5 mg/L
% resistant isolates [26, 31]: 100%
% resistant isolates [27, 32]: 52%
